The subject of one assay is CRMP2. Kind of assay: Immunoblot of CRMP2 phosphorylation in CAD cells. It is filed as cell-based, mouse. Particulars: overnight incubation of CBD3063 (20 µM). Here is the method:
Mouse neuron derived Cathecholamine A differentiated CAD cells (ECACC Cat #08100805, RRID: CVCL_0199) were grown in standard cell culture conditions, 37° C. in 5% (vol/vol) CO2. The cells were maintained in DMEM/F12 media supplemented with 10% (vol/vol) FBS (HyClone) and 1% penicillin/streptomycin sulfate from 10,000 μg/mL stock.
Indicated samples were loaded on 4-20% Novex gels (cat. no. XP04205BOX; Thermo Fisher Scientific, Waltham, MA). Proteins were transferred to preactivated PVDF membranes for 1 hour at 100 V using TGS [25 mM Tris, pH 8.5, 192 mM glycine, 0.1% (mass/vol) SDS], 20% (vol/vol) methanol as transfer buffer (0.45 μm; Cat #IPVH00010; Millipore Sigma, St. Louis, MO). After transfer, the membranes were blocked at room temperature for 1 hour with TBST (50 mM Tris·HCl, pH 7.4, 150 mM NaCl, 0.1% Tween 20) with 5% (mass/vol) nonfat dry milk, and then incubated overnight at 4° C. separately with indicated primary antibodies, β111-Tubulin (Cat #G7121; Promega, Madison, WI), CRMP2 (Cat #C2993; Sigma-Aldrich, St. Louis, MO), Cav2.2 (Cat #TA308673; Origene, Rockville, MD), CRMP2 pSer522 (Cat #CP2191; ECM Biosciences, Versailles, KY), and CRMP2 pThr514 (Cat #PA5-110113; Invitrogen, Waltham, MA), in TBST, 5% (mass/vol) BSA. For examining the effect of CBD3063 on CRMP2 phosphorylation state, CAD cells were treated overnight with vehicle (0.1% DMSO) or CBD3063 (20 μM) and the next day cells were lysed using RIPA buffer. Approximately 40 μg of total proteins were loaded on an SDS-PAGE and then transferred to polyvinylidene difluoride membranes and blocked at room temperature for 1 hour. Primary antibodies used for probing were CRMP2 (Cat #C2993, Sigma-Aldrich, St Louis, MO), CRMP2 pThr514 (Cat #PB-043, Kinasource, Dundee, Scotland, United Kingdom), CRMP2 pSer522 (Cat #CP2191, ECM Biosciences, Versailles, KY), and CRMP2 pT555 (Cat #CP2251, ECM Biosciences, Versailles, KY).

For the next assay, the system named is rat DRG sensory neurons. Kind of assay: Whole-cell current-clamp, excitability of DRG sensory neurons. It is filed as cell-based. Set-up: rheobase: unit not given here. The procedure:
Cav2.2 channels have critical roles in controlling the excitability of DRG neurons, according to earlier studies (Yang et al., 2018). Since Cav2.2 populations are affected by CBD3063, the ability of CBD3063 to alter the excitability of DRG sensory neurons was investigated (FIGS. 7A-D). Action potentials (AP) were elicited in rat sensory neurons during whole cell current-clamp tests in response to current injections from 0-120 pA after overnight incubation with 0.1% DMSO or 20 μM CBD3063.

Assay [1] relates to rat model of spared nerve injury (SNI). Kind of assay: Spared nerve injury (SNI) model, mechanical allodynia (von Frey paw withdrawal threshold). The assay is classed as in vivo. The procedure:
Rats were anesthetized with ketamine/xylazine 80/12 mg/kg intraperitoneally (i.p.) (Sigma-Aldrich, St. Louis, MO), and their head was placed in a stereotaxic frame. The cisterna magna was exposed and incised. As previously reported, an 8-cm catheter (PE-10; Stoelting, Wood Dale, IL) was implanted, terminating in the lumbar region of the spinal cord (Yaksh & Rudy, 1976). Catheters were sutured (using 3-0 silk sutures) into the deep muscle and externalized at the back of the neck. Autoclips were used to close the skin, and other surgeries were performed after a 5- to 7-day recovery period.
The neuropathic pain model induced by spared nerve injury (SNI) in rats was performed as previously described. Adult male rats (250 g, Envigo, Placentia, CA) were anesthetized with isoflurane (5% induction, 2% maintenance in 2 L/min air), and skin on the lateral surface of the left hind thigh was incised. Then, the biceps femoris muscle was dissected to expose the three terminal branches of the sciatic nerve. The common peroneal and tibial branches were tightly ligated with 4-0 silk and axotomized 2.0 mm distal to the ligation. Closure of the incision was made in two layers. The muscle was sutured once with 5-0 absorbable suture; skin was autoclipped. Animals were allowed to recover for 7 days before any testing. […]
Mechanical allodynia was assessed by measuring rats' paw withdrawal threshold in response to probing with a series of fine calibrated filaments (von Frey, Stoelting, Wood Dale, IL). Rats were placed in suspended plastic cages with wire mesh floor, and each von Frey filament was applied perpendicularly to the plantar surface of the paw. The “up-and-down” method (sequential increase and decrease of the stimulus strength) was used to determine the withdrawal threshold Dixon's nonparametric method was used for data analysis, as described by Chaplan et al., 1994. Data were expressed as the mean withdrawal threshold.

[2] abbreviates: single intrathecal 0.3 μg/kg, 7 days after SNI, male rats.

Turning to `CC(=O)N[C@@H]1CCCN(C(=O)NCCCNc2ccccn2)C1` [CBD3063, (3R)-3-acetamido-N-[3-(pyridin-2-ylamino)propyl]piperidine-1-carboxamide], in the assay on CRMP2, the “expression of phosphorylated CRMP2 at site 514 (GSK-3β)” value is “no differences”, the “expression of phosphorylated CRMP2 at site 522 (Cdk5)” value is listed as “no differences” and the “expression of phosphorylated CRMP2 at site 555 (RhoK)” value is “no differences”. For the same molecule, in the assay with rat DRG sensory neurons (20 μM overnight (DMSO: 15.00±3.416)), the rheobase is reported as 48.33±9.098. This molecule also showed a resting membrane potential with rat DRG sensory neurons (20 μM overnight (DMSO: −44.50±1.478)) of −50.00±1.915 mV. In addition, in the assay with rat DRG sensory neurons (20 μM overnight, current injection steps 10 to 120 pA), the “number of evoked action potentials” value is given as “reduced the number of evoked APs”. Further, the “tolerance (loss of antinociception)” value in assay [1] (repeated i.t. 0.3 μg/kg once a day for 14 days) is reported as “without any tolerance”. For the same molecule, the “duration of reversal of mechanical allodynia with repeated intrathecal dosage” value in assay [1] (repeated i.t. 0.3 μg/kg, rats with chronic neuropathic pain) is listed as more than 14 days. Besides, in assay [1] (repeated i.t. injection 0.3 μg/kg once a day for 14 days (DMSO: 3.37±0.86)), the “area under the curve of paw withdrawal threshold” value is 47.26±8.22. The “area under the curve of paw withdrawal threshold” value in assay [1] (single i.t. injection 0.3 μg/kg, 0.5 to 36 hours (DMSO: 7.650±0.84)) came out at 57.05±3.84. Also, in assay [1] (setting [2]), the “duration of reversal of mechanical allodynia” value is reported as “up to 36 hours” and the “start of reversal of mechanical allodynia post-injection” value came out at 60 min.

The values are drawn from US20250017940A1, “SELECTIVE PEPTIDOMIMETIC MODULATORS OF CAV2.2 (N-TYPE) VOLTAGE-GATED CALCIUM CHANNELS AND USES THEREOF” (New York University, priority 2023, published 2025).
